Test results from ChEMBL document CHEMBL1201861, “Genomics of Drug Sensitity in Cancer screening data, Wellcome Trust Sanger Institute”.

Experiments:
[1] = system: IM-9; test: SANGER: Inhibition of human IM-9 cell growth in a cell viability assay.; type: functional, cell-based
[2] = system: ECC12; test: cells; type: functional, cell-based; settings: Homo sapiens
Description: SANGER: Inhibition of human ECC12 cell growth in a cell viability assay.

[3] = system: CA46; test: cells; type: functional, cell-based; settings: Homo sapiens;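 further: growth inhibition of human CA46 cells, read out by a cell viability assay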
Description: SANGER: Inhibition of human CA46 cell growth in a cell viability assay.

[4] = system: NCI-H1522; test: cells; type: functional, cell-based; settings: Homo sapiens;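 further: growth inhibition of NCI-H1522 cells, read out with a cell viability assay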
Description: SANGER: Inhibition of human NCI-H1522 cell growth in a cell viability assay.

[5] = system: IMR-5; test: cells; type: functional, cell-based; settings: Homo sapiens;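 further: growth inhibition of human IMR-5 cells, read out with a cell viability assay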
Description: SANGER: Inhibition of human IMR-5 cell growth in a cell viability assay.

[6] = system: THP-1; test: cells; type: functional, cell-based; settings: Homo sapiens;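 further: growth inhibition of THP-1 cells, read out via a cell viability assay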
Description: SANGER: Inhibition of human THP-1 cell growth in a cell viability assay.

[7] = system: NCI-H719; test: cells; type: functional, cell-based; settings: Homo sapiens;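 further: growth inhibition of the cultured cell line, read out with a viability assay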
Description: SANGER: Inhibition of human NCI-H719 cell growth in a cell viability assay.

[8] = system: MRK-nu-1; test: cells; type: functional, cell-based; settings: Homo sapiens;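 further: cell viability assay measuring growth suppression of human MRK-nu-1 cells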
Description: SANGER: Inhibition of human MRK-nu-1 cell growth in a cell viability assay.

[9] = system: BC-3; test: cells; type: functional, cell-based; settings: Homo sapiens;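 further: cell viability assay measuring growth inhibition of human BC-3 cells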
Description: SANGER: Inhibition of human BC-3 cell growth in a cell viability assay.

[10] = system: SCC-3; test: cells; type: functional, cell-based; settings: Homo sapiens;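 further: cell viability assay measuring inhibition of SCC-3 cell growth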
Description: SANGER: Inhibition of human SCC-3 cell growth in a cell viability assay.

[11] = system: NCI-H1882; test: cells; type: functional, cell-based; settings: Homo sapiens
Description: SANGER: Inhibition of human NCI-H1882 cell growth in a cell viability assay.

[12] = system: CHP-126; test: cells; type: functional, cell-based; settings: Homo sapiens
Description: SANGER: Inhibition of human CHP-126 cell growth in a cell viability assay.

[13] = system: DMS-153; test: cells; type: functional, cell-based; settings: Homo sapiens
Description: SANGER: Inhibition of human DMS-153 cell growth in a cell viability assay.

[14] = system: U-698-M; test: cells; type: functional, cell-based; settings: Homo sapiens
Description: SANGER: Inhibition of human U-698-M cell growth in a cell viability assay.

[15] = system: PF-382; test: cells; type: functional, cell-based; settings: Homo sapiens
Description: SANGER: Inhibition of human PF-382 cell growth in a cell viability assay.

[16] = system: SU-DHL-1; test: SANGER: Inhibition of human SU-DHL-1 cell growth in a cell viability assay.; type: functional, cell-based
[17] = system: EB-3; test: cells; type: functional, cell-based; settings: Homo sapiens;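 further: human EB-3 cells, growth inhibition read out via a cell viability assay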
Description: SANGER: Inhibition of human EB-3 cell growth in a cell viability assay.

[18] = system: BC1 cell line; test: SANGER: Inhibition of human BC-1 cell growth in a cell viability assay.; type: functional, cell-based
[19] = system: WSU-NHL; test: cells; type: functional, cell-based; settings: Homo sapiens;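 further: growth inhibition of human WSU-NHL cells, read out with a cell viability assay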
Description: SANGER: Inhibition of human WSU-NHL cell growth in a cell viability assay.

[20] = system: TALL-1; test: cells; type: functional, cell-based; settings: Homo sapiens;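 further: growth inhibition of cultured human TALL-1 cells, read out by a cell viability assay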
Description: SANGER: Inhibition of human TALL-1 cell growth in a cell viability assay.

[21] = system: K052; test: cells; type: functional, cell-based; settings: Homo sapiens;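 further: Read-out from a cell viability assay, IC50 reflecting suppression of K052 cell growth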
Description: SANGER: Inhibition of human K052 cell growth in a cell viability assay.

[22] = system: SK-MM-2; test: cells; type: functional, cell-based; settings: Homo sapiens;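 further: growth inhibition of human SK-MM-2 cells, read out with a cell viability assay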
Description: SANGER: Inhibition of human SK-MM-2 cell growth in a cell viability assay.

[23] = system: LB647-SCLC; test: cells; type: functional, cell-based; settings: Homo sapiens;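 further: cell growth inhibition, read out by a viability assay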
Description: SANGER: Inhibition of human LB647-SCLC cell growth in a cell viability assay.

[24] = system: NCI-H64; test: cells; type: functional, cell-based; settings: Homo sapiens;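 further: growth inhibition of NCI-H64 cells, read out with a cell viability assay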
Description: SANGER: Inhibition of human NCI-H64 cell growth in a cell viability assay.

[25] = system: KARPAS-422; test: cells; type: functional, cell-based; settings: Homo sapiens
Description: SANGER: Inhibition of human KARPAS-422 cell growth in a cell viability assay.

[26] = system: UACC-812; test: cells; type: functional, cell-based; settings: Homo sapiens
Description: SANGER: Inhibition of human UACC-812 cell growth in a cell viability assay.

[27] = system: TE-15; test: cells; type: functional, cell-based; settings: Homo sapiens;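 further: cell viability readout of growth inhibition in TE-15 cells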
Description: SANGER: Inhibition of human TE-15 cell growth in a cell viability assay.

[28] = system: MONO-MAC-6; test: cells; type: functional, cell-based; settings: Homo sapiens;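 further: cell viability assay measuring growth inhibition of human MONO-MAC-6 cells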
Description: SANGER: Inhibition of human MONO-MAC-6 cell growth in a cell viability assay.

[29] = system: HCC1599; test: cells; type: functional, cell-based; settings: Homo sapiens;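 further: growth inhibition of HCC1599 cells, read out in a cell viability assay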
Description: SANGER: Inhibition of human HCC1599 cell growth in a cell viability assay.

[30] = system: RL95-2; test: cells; type: functional, cell-based; settings: Homo sapiens;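 further: RL95-2 growth inhibition determined through a cell viability readout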
Description: SANGER: Inhibition of human RL95-2 cell growth in a cell viability assay.

[31] = system: NCI-H1963; test: cells; type: functional, cell-based; settings: Homo sapiens
Description: SANGER: Inhibition of human NCI-H1963 cell growth in a cell viability assay.

[32] = system: NCI-H2196; test: cells; type: functional, cell-based; settings: Homo sapiens;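 further: cell viability assay used as the readout of growth inhibition in NCI-H2196 cells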
Description: SANGER: Inhibition of human NCI-H2196 cell growth in a cell viability assay.

[33] = system: SUP-T1; test: cells; type: functional, cell-based; settings: Homo sapiens;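 further: growth inhibition of human SUP-T1 cells, read out as cell viability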
Description: SANGER: Inhibition of human SUP-T1 cell growth in a cell viability assay.

[34] = system: SIMA; test: cells; type: functional, cell-based, Homo sapiens; settings: Homo sapiens, SIMA;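 further: growth inhibition of SIMA cells, measured with a cell viability readout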
Description: SANGER: Inhibition of human SIMA cell growth in a cell viability assay.

[35] = system: NCI-H1694; test: cells; type: functional, cell-based; settings: Homo sapiens;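 further: cell viability assay measuring inhibition of growth in human NCI-H1694 cells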
Description: SANGER: Inhibition of human NCI-H1694 cell growth in a cell viability assay.

[36] = system: REH; test: cells; type: functional, cell-based; settings: Homo sapiens;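 further: growth inhibition of REH cells determined with a cell viability read-out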
Description: SANGER: Inhibition of human REH cell growth in a cell viability assay.

[37] = system: EB2; test: cells; type: functional, cell-based; settings: Homo sapiens;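 further: growth inhibition of EB2 cells, read out with a cell viability assay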
Description: SANGER: Inhibition of human EB2 cell growth in a cell viability assay.

[38] = system: NCI-H2227; test: cells; type: functional, cell-based; settings: Homo sapiens;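 further: growth inhibition of the human cell line, read out with a cell viability assay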
Description: SANGER: Inhibition of human NCI-H2227 cell growth in a cell viability assay.

[39] = system: NB1; test: cells; type: functional, cell-based; settings: Homo sapiens;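 further: reduction of NB1 cell proliferation, read out with a viability assay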
Description: SANGER: Inhibition of human NB1 cell growth in a cell viability assay.

[40] = system: NCI-H322M; test: cells; type: functional, cell-based; settings: Homo sapiens;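 further: cell viability assay measuring inhibition of growth of human NCI-H322M cells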
Description: SANGER: Inhibition of human NCI-H322M cell growth in a cell viability assay.

[41] = system: SIG-M5; test: cells; type: functional, cell-based; settings: Homo sapiens;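 further: cell viability assay read-out, measuring how strongly growth of cultured human SIG-M5 cells is inhibited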
Description: SANGER: Inhibition of human SIG-M5 cell growth in a cell viability assay.

[42] = system: CESS; test: SANGER: Inhibition of human CESS cell growth in a cell viability assay.; type: functional, cell-based
[43] = system: LOUCY; test: cells; type: functional, cell-based; settings: Homo sapiens;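 further: growth inhibition of human LOUCY cells, read out with a cell viability assay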
Description: SANGER: Inhibition of human LOUCY cell growth in a cell viability assay.

[44] = system: LC-1F; test: cells; type: functional, cell-based; settings: Homo sapiens;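 further: growth inhibition of human LC-1F cells, read out with a cell viability assay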
Description: SANGER: Inhibition of human LC-1F cell growth in a cell viability assay.

[45] = system: P31-FUJ; test: cells; type: functional, cell-based; settings: Homo sapiens;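 further: growth inhibition of P31-FUJ cells, read out with a viability assay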
Description: SANGER: Inhibition of human P31-FUJ cell growth in a cell viability assay.

[46] = system: EW-22; test: cells; type: functional, cell-based; settings: Homo sapiens;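 further: growth inhibition of the EW-22 cell line, measured with a cell viability readout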
Description: SANGER: Inhibition of human EW-22 cell growth in a cell viability assay.

[47] = system: SNU-423; test: cells; type: functional, cell-based, Homo sapiens; settings: Homo sapiens, SNU-423
Description: SANGER: Inhibition of human SNU-423 cell growth in a cell viability assay.

[48] = system: KNS-62; test: cells; type: functional, cell-based; settings: Homo sapiens;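 further: inhibition of cell growth, read out with a cell viability assay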
Description: SANGER: Inhibition of human KNS-62 cell growth in a cell viability assay.

[49] = system: LU-135; test: cells; type: functional, cell-based; settings: Homo sapiens
Description: SANGER: Inhibition of human LU-135 cell growth in a cell viability assay.

[50] = system: NCI-H1048; test: cells; type: functional, cell-based; settings: Homo sapiens;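 further: growth inhibition of human NCI-H1048 cells, read out with a cell viability assay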
Description: SANGER: Inhibition of human NCI-H1048 cell growth in a cell viability assay.

[51] = system: D-566MG; test: cells; type: functional, cell-based; settings: Homo sapiens
[52] = system: NCI-H1666; test: cells; type: functional, cell-based; settings: Homo sapiens;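 further: growth inhibition of the cell line, read out with a cell viability assay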
Description: SANGER: Inhibition of human NCI-H1666 cell growth in a cell viability assay.

[53] = system: NCI-H1573; test: cells; type: functional, cell-based; settings: Homo sapiens;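 further: growth inhibition of NCI-H1573 cells, read out with a cell viability assay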
Description: SANGER: Inhibition of human NCI-H1573 cell growth in a cell viability assay.

[54] = system: TGBC11TKB; test: cells; type: functional, cell-based; settings: Homo sapiens;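 further: growth inhibition of human TGBC11TKB cells, measured by a cell viability assay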
Description: SANGER: Inhibition of human TGBC11TKB cell growth in a cell viability assay.

[55] = system: NCI-H2291; test: cells; type: functional, cell-based; settings: Homo sapiens
Description: SANGER: Inhibition of human NCI-H2291 cell growth in a cell viability assay.

[56] = system: HSC-4; test: cells; type: functional, cell-based, Homo sapiens; settings: Homo sapiens, HSC-4;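 further: growth inhibition of human HSC-4 cells, read out with a cell viability assay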
Description: SANGER: Inhibition of human HSC-4 cell growth in a cell viability assay.

[57] = system: EPLC-272H; test: cells; type: functional, cell-based; settings: Homo sapiens
Description: SANGER: Inhibition of human EPLC-272H cell growth in a cell viability assay.

[58] = system: A549; test: cells; type: functional, cell-based; settings: Homo sapiens;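 further: growth inhibition of A549 cells, read out with a cell viability assay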
Description: SANGER: Inhibition of human A549 cell growth in a cell viability assay.

**Q.** Which IC50 [1] does the source give for `O=C(/C=C/c1ccccc1)NC(NC(=S)Nc1cccc2cccnc12)C(Cl)(Cl)Cl` (configuration not stated) [SALUBRINAL] here?
**A.** > 16 µM

**Q.** What about the IC50 [2] of the same molecule?
**A.** > 16 µM

**Q.** And the IC50 [3]?
**A.** > 16 µM

**Q.** What about the IC50 [4] of the same molecule?
**A.** > 16 µM

**Q.** And the IC50 [5]?
**A.** 13.8 µM

**Q.** And the IC50 [6]?
**A.** > 16 µM

**Q.** And the IC50 [7]?
**A.** > 16 µM

**Q.** What about the IC50 [8] of the same molecule?
**A.** 7.75 µM

**Q.** What about the IC50 [9] of the same molecule?
**A.** 14.8 µM

**Q.** And the IC50 [10]?
**A.** > 16 µM

**Q.** And the IC50 [11]?
**A.** > 16 µM

**Q.** What about the IC50 [12] of the same molecule?
**A.** > 16 µM

**Q.** What about the IC50 [13] of the same molecule?
**A.** > 16 µM

**Q.** And the IC50 [14]?
**A.** > 16 µM

**Q.** What about the IC50 [15] of the same molecule?
**A.** > 16 µM

**Q.** What about the IC50 [16] of the same molecule?
**A.** > 16 µM

**Q.** And the IC50 [17]?
**A.** 9.63 µM

**Q.** What about the IC50 [18] of the same molecule?
**A.** 15.2 µM

**Q.** What about the IC50 [19] of the same molecule?
**A.** > 16 µM

**Q.** And the IC50 [20]?
**A.** > 16 µM

**Q.** And the IC50 [21]?
**A.** > 16 µM

**Q.** What about the IC50 [22] of the same molecule?
**A.** > 16 µM

**Q.** And the IC50 [23]?
**A.** > 16 µM

**Q.** And the IC50 [24]?
**A.** > 16 µM

**Q.** What about the IC50 [25] of the same molecule?
**A.** > 16 µM

**Q.** What about the IC50 [26] of the same molecule?
**A.** > 16 µM

**Q.** What about the IC50 [27] of the same molecule?
**A.** > 16 µM

**Q.** What about the IC50 [28] of the same molecule?
**A.** 10.5 µM

**Q.** What about the IC50 [29] of the same molecule?
**A.** 12.1 µM

**Q.** What about the IC50 [30] of the same molecule?
**A.** > 16 µM

**Q.** And the IC50 [31]?
**A.** > 16 µM

**Q.** And the IC50 [32]?
**A.** > 16 µM

**Q.** And the IC50 [33]?
**A.** > 16 µM

**Q.** What about the IC50 [34] of the same molecule?
**A.** > 16 µM

**Q.** What about the IC50 [35] of the same molecule?
**A.** > 16 µM

**Q.** And the IC50 [36]?
**A.** > 16 µM

**Q.** What about the IC50 [37] of the same molecule?
**A.** > 16 µM

**Q.** What about the IC50 [38] of the same molecule?
**A.** > 16 µM

**Q.** And the IC50 [39]?
**A.** > 16 µM

**Q.** And the IC50 [40]?
**A.** > 16 µM

**Q.** What about the IC50 [41] of the same molecule?
**A.** > 16 µM

**Q.** And the IC50 [42]?
**A.** 11.7 µM

**Q.** What about the IC50 [43] of the same molecule?
**A.** > 16 µM

**Q.** What about the IC50 [44] of the same molecule?
**A.** > 16 µM

**Q.** And the IC50 [45]?
**A.** > 16 µM

**Q.** Which results are given for `CN(Cc1cnc2nc(N)nc(N)c2n1)c1ccc(C(=O)N[C@@H](CCC(=O)O)C(=O)O)cc1` [METHOTREXATE]?
**A.** IC50 [46]: > 0.2 µM; IC50 [47]: > 0.2 µM; IC50 [48]: > 0.2 µM; IC50 [49]: > 0.2 µM; IC50 [50]: > 0.2 µM; IC50 [51]: > 0.2 µM; IC50 [52]: > 0.2 µM; IC50 [53]: > 0.2 µM; IC50 [54]: > 0.2 µM; IC50 [55]: > 0.2 µM; IC50 [56]: > 0.2 µM; IC50 [57]: > 0.2 µM; IC50 [58]: > 0.2 µM

**Q.** `CN1CCN(CCOc2cc(OC3CCOCC3)c3c(Nc4c(Cl)ccc5c4OCO5)ncnc3c2)CC1` [SARACATINIB] was tested. Which IC50 [1] did it give?
**A.** > 2 µM

**Q.** What about the IC50 [3] of the same molecule?
**A.** > 2 µM

**Q.** And the IC50 [46]?
**A.** > 2 µM

**Q.** What about the IC50 [4] of the same molecule?
**A.** > 2 µM

**Q.** What about the IC50 [5] of the same molecule?
**A.** > 2 µM

**Q.** What about the IC50 [6] of the same molecule?
**A.** > 2 µM

**Q.** What about the IC50 [7] of the same molecule?
**A.** > 2 µM

**Q.** And the IC50 [8]?
**A.** > 2 µM

**Q.** What about the IC50 [9] of the same molecule?
**A.** > 2 µM

**Q.** And the IC50 [10]?
**A.** > 2 µM

**Q.** What about the IC50 [11] of the same molecule?
**A.** > 2 µM

**Q.** What about the IC50 [12] of the same molecule?
**A.** > 2 µM

**Q.** And the IC50 [13]?
**A.** > 2 µM

**Q.** And the IC50 [14]?
**A.** > 2 µM

**Q.** What about the IC50 [15] of the same molecule?
**A.** > 2 µM

**Q.** And the IC50 [16]?
**A.** > 2 µM

**Q.** And the IC50 [17]?
**A.** > 2 µM

**Q.** What about the IC50 [18] of the same molecule?
**A.** > 2 µM

**Q.** What about the IC50 [19] of the same molecule?
**A.** > 2 µM

**Q.** What about the IC50 [20] of the same molecule?
**A.** > 2 µM

**Q.** And the IC50 [21]?
**A.** > 2 µM

**Q.** What about the IC50 [22] of the same molecule?
**A.** > 2 µM

**Q.** What about the IC50 [23] of the same molecule?
**A.** > 2 µM

**Q.** What about the IC50 [24] of the same molecule?
**A.** > 2 µM

**Q.** What about the IC50 [25] of the same molecule?
**A.** > 2 µM

**Q.** And the IC50 [26]?
**A.** > 2 µM

**Q.** What about the IC50 [27] of the same molecule?
**A.** 0.274 µM

**Q.** What about the IC50 [28] of the same molecule?
**A.** > 2 µM

**Q.** And the IC50 [29]?
**A.** > 2 µM

**Q.** And the IC50 [30]?
**A.** 1.67 µM

**Q.** And the IC50 [31]?
**A.** > 2 µM

**Q.** And the IC50 [32]?
**A.** > 2 µM

**Q.** And the IC50 [33]?
**A.** > 2 µM

**Q.** And the IC50 [34]?
**A.** > 2 µM

**Q.** What about the IC50 [35] of the same molecule?
**A.** > 2 µM

**Q.** And the IC50 [36]?
**A.** > 2 µM

**Q.** And the IC50 [37]?
**A.** > 2 µM

**Q.** And the IC50 [39]?
**A.** > 2 µM

**Q.** What about the IC50 [40] of the same molecule?
**A.** > 2 µM

**Q.** And the IC50 [41]?
**A.** > 2 µM

**Q.** What about the IC50 [42] of the same molecule?
**A.** > 2 µM

**Q.** What about the IC50 [43] of the same molecule?
**A.** > 2 µM

**Q.** And the IC50 [44]?
**A.** > 2 µM

**Q.** And the IC50 [45]?
**A.** > 2 µM
